Test results from patent publication US20240099295A1, “CELL TREATMENT AGENT” (AYA Inc., priority 2021, published 2024).

How the values were obtained:
Type in all cases: cell-based
[1] = system: Rat corneal epithelial cell; test: Cell dormancy effect: cell cycle analysis by flow cytometry; conditions: serum-free cell culture solution, cultured 48 hours at 37° C.
Procedure: Sodium alginate (sodium alginate first grade reagent, available from FUJIFILM Wako Pure Chemical Corporation, viscosity of 1% aqueous solution is 120 mPa·s at 20° C.), DS (the same as in Experimental Example 1), or sodium heparin (the same as in Experimental Example 1) was used as an active ingredient in the cell treatment agent, and whether cell dormancy occurs or not by action of the active ingredient was examined by comparing the activities of cell division and proliferation which are the most general cell activities in the following manner.
The cell cycle was analyzed by flow cytometry according to the method described in known literature (Piotr Pozarowski and Zbigniew Darzynkiewicz, “Analysis of Cell Cycle by Flow Cytometry,” Methods in Molecular Biology, vol. 281: Checkpoint Controls and Cancer, Volume 2), and frequency of cell division and proliferation was compared between different active ingredients of the cell treatment agent. A specific method is as follows. Using a normal serum-free cell culture solution as a conditioning solution (comparison reference (a)), (b) a cell preservation solution in which sodium alginate (Na alginate) is added to the conditioning solution in a concentration of 2.5 mg/ml, (c) a cell preservation solution in which DS is added to the conditioning solution in a concentration of 0.1 mg/ml, and (d) a cell preservation solution in which heparin sodium (heparin Na) is added to the conditioning solution in a concentration of 50 units/ml, were prepared. To these cell preservation solutions, rat corneal epithelial cells were added at a cell concentration of 10^5 cells/ml and cultured for 48 hours under normal cell culture conditions (37° C., CO2 concentration of 5%, humidity of 100%). The number of cells in each culture was determined by cell cycle analysis using flow cytometry to determine the number of cells in each cell cycle, and the percentage of cells in the S phase, G2 phase, and M phase, which are considered as the periods of the cell division and proliferation process, was compared with the percentage of cells in the G0 phase and G1 phase, which are considered as other periods. The results are of N=4.

[2] = system: human amnion-derived mesenchymal stem cells; test: Differentiation state maintenance: marker positive rate by flow cytometry; conditions: DS 0.1 mg/mL in serum-free cell culture solution, 5 days of culture
Procedure: Using dextran sulfate (DS) as an active ingredient of the cell treatment agent, the cell dormancy effect by DS was considered according to the effect of preventing differentiation by maintaining the cells in an undifferentiated state, as an index. As the cells, human amnion-derived mesenchymal stem cells in an undifferentiated state were used. Using a normal serum-free cell culture solution as a conditioning solution, a cell preservation solution a was prepared by adding DS to the conditioning solution at 0.1 mg/ml, and a cell preservation solution b was prepared by adding FBS to the conditioning solution at 10%. To each of the cell preservation solutions a and b, the aforementioned stem cells were added at 10^5 cells/ml, respectively, and then cultured for 5 days under normal cell culture conditions (37° C., CO2 concentration of 5%, humidity of 100%). The degrees of differentiation of stem cells before culture and after 5 days of culture were evaluated and compared by flow cytometry. The method followed the method described in Masoumeh Fakhr Taha, Vahideh Hedayati “Isolation, identification and multipotential differentiation of mouse adipose tissue-derived stem cells” Tissue and Cell 42 (2010) 211-216. The evaluation was made according to CD29 and CD44 as undifferentiation markers and CD11b, CD31, and CD45 as markers of differentiation into mesenchymal cells.

[3] = system: Chinese hamster fibroblasts; test: Cell detaching and suspending effect (Experimental Example 4); conditions: same experiment as Table 13 with Chinese hamster fibroblasts
[4] = system: rat corneal epithelial cells; test: Re-adhesion of detached and suspended cells to calcium phosphate film (F-actin fluorescent staining)
From the text: Whether the cells having been detached and suspended as described above were re-adhered by calcium ions was examined. Part of the bottom of the culture dish was coated with a slurry of calcium phosphate fine powder mixed with distilled water and dried in an oven to separately prepare a culture dish in which a film of fine powder of calcium phosphate was stuck to the bottom of the dish. Then, to the culture dish with the calcium phosphate film and the culture dish without the film (control), a cell culture solution containing the detached and suspended cells as described above was added, the culture dishes were placed on the base of a shaker (product name: Laboshaker Model BC-740, available from BIO CRAFT Corporation), the shaking intensity was set to the lowest level, the shaking frequency was set to 4 times/min, and the cells were cultured under normal cell culture conditions (37° C., CO2 concentration of 5%, humidity of 100%) for 24 hours while the culture dishes were gently shaken. The culture solution in each culture dish was then removed, and the culture dishes were gently washed with 10% FBS cell culture solution, and then viable cells adhered to the inner wall of the culture dishes were observed under a microscope (inverted fluorescence/visible microscope with cooled CCD camera, IX83, available from Olympus Corporation) by the fluorescent staining method of F-actin using viable cell staining by a fluorescent dye (CytoPainter F-actin Staining Kit, available from Abcam). The fluorescent staining method of F-action can be performed, for example, according to the method described in Vera D M, Robert J E, Ved P S, Orrin S and John S C, “Optimizing leading edge F-actin labeling using multiple actin probes, fixation methods and imaging modalities” BIOTECHNIQUES, VOL. 66, NO. 3, (2019), or in Michael M, Matthias P and Robert G “Actin visualization at a glance” n J. Cell Sci. 130, 525-530. (2017) doi:10.1242/jcs.20448.
In FIGS. 1 to 4, the part that looks white or gray is a viable cell group stained with the fluorescent dye.

[5] = culture dish with calcium phosphate film, 24 hours culture under gentle shaking (FIGS. 1 and 2)
[6] = culture dish without calcium phosphate film (control), 24 hours culture under gentle shaking (FIGS. 3 and 4)

Row | Substance | Percentages of cells of each cell cycle: G0 phase + G1 phase ([1]; DS 0.1 mg/mL) [%] | Percentages of cells of each cell cycle: S phase + G2 phase + M phase ([1]; DS 0.1 mg/mL) [%] | Positive rate of marker CD11b after culture ([2]; differentiation marker) [%] | Positive rate of marker CD31 after culture ([2]; differentiation marker) [%] | Positive rate of marker CD45 after culture ([2]; differentiation marker) [%] | Positive rate of marker CD29 after culture ([2]; undifferentiation marker) [%] | Positive rate of marker CD44 after culture ([2]; undifferentiation marker) [%] | Detachment and suspension of adherent cells [3] | Re-adhesion of detached and suspended viable cells [4, 5] | Re-adhesion of detached and suspended viable cells [4, 6] | Percentages of cells of each cell cycle: G0 phase + G1 phase ([1]; Heparin Na 50 units/mL) [%] | Percentages of cells of each cell cycle: S phase + G2 phase + M phase ([1]; Heparin Na 50 units/mL) [%]
1 | dextran sulfate [DS] | 92.4 | 5.77 | 19.8 | 8.3 | 7.3 | 98.7 | 62.3 | equivalent results were obtained | numerous viable cells were observed adhering | a very small number of viable cells adhered |  | 
2 | heparin sodium [Heparin Na, reference compound] |  |  |  |  |  |  |  |  | numerous viable cells were observed adhering | a very small number of viable cells adhered | 89.7 | 7.68
